Measured values from US20030083501A1, “Process for preparing paroxetine HCl which limits formation of pink colored compounds” (priority 2001, published 2003).
Counter-ions that a name gives are not always drawn.

What was measured:
Format in all cases: physicochemical
[1] = HPLC content of the impurity at RRT about 1.5 after storage; conditions: storage for 4 days at 55° C., UV 285 nm, b52 gives such levels as HPLC area percentage, HCl
From the text: Without being bound by theory, it is believed that impurities in paroxetine hydrochloride play a role in the color change to pink. The level of the impurities in paroxetine that are associated with a color change to pink can be analyzed in two different manners. One approach is a simple visual analysis, i.e., observing if a sample of paroxetine HCl has turned pink. Another approach is to measure the degree of an impurity identified by a high pressure liquid chromatography (“HPLC”) relative retention time (“RRT”) of about 1.5. The different UV-spectrum characteristic of this impurity has linked the impurity to the development of a pink color. […] Purification steps to remove this impurity such as by crystallization, extraction, chromatography or other separation procedures are often ineffective. The paroxetine hydrochloride of the present process is substantially free of impurities associated with a color change to pink, and is less susceptible, if at all, to develop a pink color overtime These impurities include the impurity identified by an HPLC RRT of about 1.5. Retention time refers to the time required for a compound to pass from the point of injection to the detector. […] Detected by U.V. spectroscopy at λ=285 nm.

[2] = Visual analysis of the colour of a paroxetine HCl solution; conditions: 2 mg/ml paroxetine HCl in 0.05M di-Potassium hydrogen phosphate buffer and 35% acetonitrile, standing 20 minutes
Protocol: One visual analysis can be carried out by preparing a solution of about 2 mg/ml of paroxetine HCl prepared in a mixture of about 0.05M di-Potassium hydrogen phosphate buffer and about 35% of acetonitrile. […] Preferably, the solution of the paroxetine HCl of the present invention is color free for at least about 20 minutes. On the other hand, available commercial products usually produce a pink colored solution under similar conditions. To test the purity of the final product, a 2 mg/ml solution of paroxetine HCl was prepared in a mixture of 0.05M di-Potassium hydrogen phosphate buffer and 35% of acetonitrile.

[3] = Visual analysis of the colour of solid paroxetine HCl during storage; conditions: storage for at least one month at 55° C.
Protocol: Another visual analysis can be carried out by observing the color of paroxetine hydrochloride during storage. Preferably, the paroxetine HCl of the present invention is substantially free compounds associated with a pink color for at least four days at a temperature of about 55° C. and a relative humidity of about 60-80%. One of skill in the art can appreciate that the level of the compounds associated with a pink color can vary according to the temperature and other conditions used for storage.
Paroxetine HCl (approximately 4 grams) was dissolved in toluene(40 ml) at reflux. Ascorbic acid (40 mg) and active carbon SX1 (200 mg) were added to the solution and stirred for 5-10 minutes. The solution was then filtered. The filtrate was cooled to 2-4° C., stirred for approximately 1 hour and filtered again to separate a formed precipitate. The solid precipitate was washed with toluene (4 ml) and dried at a temperature of 60° C. under vacuum to give white (color-free) product (3.4 grams). The product was color-free during storage for at least one month at a temperature of 55° C., and yielded solutions (carried out in the same manner as example 1) that were also color-free.

| SMILES | content of the impurity at RRT about 1.5 after storage [1] | development of a pink color in solution [2] | color of the product during storage [3] |
| --- | --- | --- | --- |
| Fc1ccc([C@@H]2CCNC[C@H]2COc2ccc3c(c2)OCO3)cc1 [Example 2, paroxetine HCl] | 0.02 | – | – |
| Fc1ccc([C@@H]2CCNC[C@H]2COc2ccc3c(c2)OCO3)cc1 [Example 1, paroxetine HCl] | – | did not develop a pink color | – |
| Fc1ccc([C@@H]2CCNC[C@H]2COc2ccc3c(c2)OCO3)cc1 [Example 5, Paroxetine HCl] | – | color-free | color-free |
| Fc1ccc([C@@H]2CCNC[C@H]2COc2ccc3c(c2)OCO3)cc1 [Example 3, paroxetine HCl] | 0.23 | – | – |
